Data set [1] deals with COS-1 cells. The data set is described as follows: Quantitation of chromatin condensation levels (S.D. value of PI intensity per pixel) in COS-1 cells. Format: cell-based, monkey. On the procedure:
COS-1, HeLa cells (Japanese Collection of Research Bioresources, Osaka), MCF-7 (provided by H. Saya), A431 (provided by M. N. Fukuda), HEK293 (provided by […]), HCT116 (provided by T. Tomonaga), and SYF ([37]; provided by M. Okada and S. Nada) cells were cultured in Iscove's modified DME containing 5% fetal bovine serum (FBS). Cells were transiently transfected with 0.5 μg of plasmid vector using Trans IT Transfection reagent (Mirus) or with 1 μg of plasmid vector using linear polyethylenimine (25 kDa) (Polyscience, Inc.). For growth factor stimulation, COS-1 cells were starved under low serum conditions (0.05% FBS) for 24 h and restimulated with serum (5% FBS). For stimulation of endogenous SFKs, cells were treated with 3 mM Na3VO4 for 3 h, and SFK-mediated tyrosine phosphorylation was verified by treatment with 10 μM PP2 (SFK inhibitor; Calbiochem) or 100 nM wortmannin (PI3K inhibitor; Alomone Labs) for 21 h before Na3VO4 treatment. Na3VO4 was dissolved at 500 mM in 500 mM unbuffered HEPES before use. For preparation of stable transfectant clones, SYF cells transfected with c-Src-wt or Lyn-wt were selected in 333 μg/mL Zeocin (Invitrogen), and COS-1 cells were transfected with the BOSH2BGFP-N1 vector, which encodes GFP-tagged histone H2B ([39,40]; provided by H. Saya), were selected in 3 μg/mL blasticidin. Confocal and Nomarski differential-interference-contrast images were obtained using a Fluoview FV500 confocal laser scanning microscope with a 40×1.00 NA oil and a 100×1.35 NA oil immersion objective (Olympus, Tokyo) and an LSM 510 confocal laser scanning microscope with a 63×1.40 NA oil immersion objective (Zeiss), as described. One planar (xy) section slice (0.6-μm thickness) is shown in all experiments. In brief, cells were fixed with 4% paraformaldehyde for 20 min, and permeabilized in phosphate-buffered saline (PBS) containing 0.1% saponin and 3% bovine serum albumin at room temperature. Cells were subsequently reacted with an appropriate primary antibody for 1 h, washed with PBS containing 0.1% saponin, stained with FITC- or TRITC-conjugated secondary antibody for 1 h. […] To ensure no bleed-through from the fluorescein signal into the red channel, fluorescein and rhodamine were independently excited at 488 nm and 543 nm, respectively. PI was excited at 488 or 543 nm. Emission signals were detected between 505 and 525 nm for fluorescein, at more than 560 nm for rhodamine and more than 610 nm for PI [44]. Composite figures were prepared using Photoshop 5.0 and Illustrator 9.0 software (Adobe). For nuclear staining with anti-pTyr, anti-ATF-2 […]/71, and anti-histone H3K4me3 antibodies, cells were in situ extracted with 0.5% Triton X-100 at 4° C. for 3 min before fixation with 4% paraformaldehyde. For HP1α staining, cells were fixed in 100% methanol at -20° C. for 10 min followed by permeabilization for 30 min in PBS containing 0.1% Triton X-100 at room temperature. Cells were reacted with anti-HP1α antibody for 1 h at room temperature, washed with PBS four times, and stained with secondary antibody for 1 h. Fluorescence intensity plots of anti-histone H3K4me3, anti-ATF-2 […]/71 and anti-HP1α antibody and PI staining (see FIGS. 18B, 19B, and 20B, respectively) were generated using Fluoview version 4.3 software (Olympus, Tokyo). For detection of the kinase activity of nuclear SFKs, purified nuclei suspended in kinase buffer (50 mM HEPES-NaOH, pH7.4, 5 mM MgCl2, 5 mM MnCl2 and 0.1 mM Na3VO4) were preincubated with or without 10 μM PP2 at 30° C. for 30 min, and subsequently incubated with 5 or 10 μM ATP at 30° C. for 30 min, followed by cytocentrifugation at 200×g for 5 min and fixation with 4% paraformaldehyde. DNA was stained with 20 μg/mL PI and 200 μg/mL RNase A for 30 min. Mean fluorescence intensity of tyrosine-phosphorylated proteins in the nucleus was measured using the ImageJ software (National Institutes of Health). Confocal images of PI-stained nuclei were obtained as described above. […]

The test system of data set [2] is COS-1 cells. Put plainly: Cell cycle analysis: DNA content by flow cytometry in COS-1 cells. The conditions noted are these: H2O2 at 1, 10 and 20 mM for 1 h, FIGS. 11A-11D. In kind it is cell-based, monkey. On the procedure:
To obtain S- and G2-phase cells, COS-1 cells grown in Iscove's modified DME containing 5% FBS were blocked at S phase by exposure to 3 mM thymidine for 18 h. Cells were washed free of thymidine with PBS, and cultured for further 2 or 5 h. Cells were detached by trypsinization, fixed in 1.5% paraformaldehyde at 4° C. for 1 h, and then permeabilized with 70% ethanol at −30° C. for more than 1 h. Fixed cells were washed twice with PBS containing 3% FBS, and treated with 200 μg/ml RNase A and 50 μg/ml PI at 37° C. for 30 min to stain DNA. Cell cycle phase was analyzed by flow cytometry using a MoFlo cell sorter equipped with a 488-nm argon laser (Beckman Coulter). Cells transfected with Lyn-HA or NLS-Lyn-HA were cultured for 36 h, fixed and permeabilized as described above. Fixed cells were washed with PBS containing 3% FBS, stained with anti-HA antibody for 1 h, washed with PBS and stained with FITC-conjugated secondary antibody for 1 h. After DNA staining with PI as described above, cell cycle phase was analyzed in cells expressing Lyn-HA or NLS-Lyn-HA.
In general terms: Flow cytometry measures light scatter and fluorescence of single cells or particles in a stream.

`OO` [H2O2, hydrogen peroxide]: the “level of DNA condensation (S.D. value)” value in the data set on COS-1 cells [1] (COS-1, H2O2 at 1, 10 and 20 mM for 1 h, FIG. 12) is “corresponded to the degree of apoptosis”. The “apoptotic SubG1 cells (histograms of DNA content)” value in the data set with COS-1 cells [2] was “induction of apoptotic SubG1 cells in a dose-dependent manner”.

Regarding `N#CC(=C(/N)Sc1ccccc1N)/C(C#N)=C(\N)Sc1ccccc1N` [U0126], in the data set on COS-1 cells [1] (cells not specified, U0126 concentration not given, data not shown), the “basal levels of chromatin condensation” value was “slightly decreased”.
